As usually defined, the EC50 is the concentration at which the effect is half-maximal.

This note sets out measurements from patent US10407445B2, “Hepatitis C virus inhibitors” (ENANTA PHARMACEUTICALS, INC., priority 2013, dated 2019).

What all share (type): cell-based
Test [1] concerns GT1a replicon encoding NS5A mutation M28T. Briefly: Transient replication assay, GT1a replicon with NS5A mutation M28T. The conditions noted are these: Hepatitis C virus, read-out: EC50 (nM) 1a M28T. (In antiviral work, replicon cells carry a viral genome segment that copies itself.)
A further test deals with HCV GT 1a replicon. Briefly: HCV replicon assay, stable GT 1a replicon (Renilla luciferase). The conditions noted are these: Hepatitis C virus, GT1A; comparative table, GT 1a; read-out: EC50 (nM) 1a. The essentials: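 Huh-7.5 cells stably carrying a GT1a replicon (H77-based) with Renilla luciferase-Neo reporter, 4000 cells/well, sixteen-point half-log compound series, phenol red-free DMEM without G418. Luciferase read after 72 h relative to DMSO-treated cells gives EC50.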

The test system of test [2] is GT1a replicon encoding NS5A mutation Y93H. Briefly: Transient replication assay, GT1a replicon with NS5A mutation Y93H. The conditions noted are these: Hepatitis C virus, read-out: EC50 (nM) 1a Y93H.

As for `COC(=O)N[C@H](C(=O)N1C[C@]2(CCCOC2)C[C@H]1c1ncc(-c2ccc(-c3ccc4c(ccc5nc([C@@H]6CCCN6C(=O)[C@@H](NC(=O)OC)C(C)C)[nH]c54)c3)cc2)[nH]1)C(C)C` [drawing 233], the EC50 came to 0.2 nM in test [1], 0.01 nM in the test with HCV GT 1a replicon and 8 nM in test [2].
